Measured values from ChEMBL document CHEMBL1128795, “N-(Quinuclidin-3-yl)-2-(1-methyl-1H-indol-3-yl)-2-oxo-acetamide: a high affinity 5-HT3 receptor partial agonist” (Bioorg Med Chem Lett, 1995).

Tests used:
Format in all cases: functional
Rattus norvegicus [1] = organism: Rattus norvegicus; assay: Tested for effective concentration against 5-HT mediated depolarization of isolated rat vagus nerve
Rattus norvegicus [2] = organism: Rattus norvegicus; assay: Tested for maximum response in depolarization of isolated rat vagus nerve measured at dose 10 uM
[3] = biological target: T1, Serotonin 3 (5-HT3) receptor (Rattus norvegicus) (UniProt P35563+Q9JJ16); assay: Agonist activity against 2-methyl-5-HT induced bradycardia (von Bezold-Jarisch (B-J) reflex) in anesthetized rats
[4] = biological target: T1, Serotonin 3 (5-HT3) receptor (Rattus norvegicus); assay: Tested for % decrease in heart rate relative to pre-dose control against 2-methyl-5-HT induced bradycardia (von Bezold-Jarisch (B-J) reflex) in anesthetized rats; parameters: scale not given: the % may be the effect or the level left

| Compound | EC50 (Rattus norvegicus [1]) [µM] | Max response (Rattus norvegicus [2]) [uV] | ED50 [3] [µg/kg] | Control [4] [%] |
| --- | --- | --- | --- | --- |
| Cc1[nH]c2ccc(O)cc2c1CCN | 6.17 | 363 | 7.7 | 58 |
| NCCc1c[nH]c2ccc(O)cc12 [SEROTONIN] | 0.977 | 340 |  |  |
